These are literature values, as cited in patent publication US20140127295A1, “COMPOSITIONS, PROCESS OF PREPARATION OF SAID COMPOSITIONS AND METHOD OF TREATING INFLAMMATORY DISEASES” (priority 2011, published 2014).

Molecules are shown by their SMILES.

The conditions of data set [1]: in vivo.
For data set [2] the following is noted: in mice.

As a reminder, the Cmax is the maximum level reached in the sampled fluid or tissue. As a reminder, the Tmax is the time at which the peak concentration occurs. Turning to `CCCc1nn(C)c2c(=O)[nH]c(-c3cc(S(=O)(=O)N4CCN(C)CC4)ccc3OCC)nc12` [CW305, 5-[2-ethoxy-5-(4-methylpiperazine-1-sulfonyl)phenyl]-1-methyl-3-propyl-1H,4H,7H-pyrazolo[4,3-d]pyrimidin-7-one], in data set [1], the Cmax is given as 440 ng/mL, the Tmax was 1 h and the T½ was 4 to 5 h. The maximum tolerated dose in data set [2] is recorded as 8.5 mg/kg.

With `CCC(C)(C)C(=O)O[C@H]1C[C@@H](C)C=C2C=C[C@H](C)[C@H](CC[C@@H]3C[C@@H](O)CC(=O)O3)[C@H]21` [CW302, (1S,3R,7S,8S,8aR)-8-{2-[(4R)-4-hydroxy-6-oxooxan-2-yl]ethyl}-3,7-dimethyl-1,2,3,7,8,8a-hexahydronaphthalen-1-yl 2,2-dimethylbutanoate], the time of peak concentration (Tmax) in data set [1] is 1.9 h.
